Activity calls are given as the source filed them.
Tests used:
Cytochrome P450 2D6 = Cytochrome P450 2D6 (Homo sapiens, UniProt P10635); experiment: qHTS Assay for Inhibitors and Substrates of Cytochrome P450 2D6. [Related pubchem assays: 410 ]; format: ADME; conditions: read-out: Potency
Beta-galactosidase = Beta-galactosidase (Escherichia coli, UniProt Q8VNN2); experiment: PubChem AID 485352; format: functional
[1] = C. albicans growth with fluconazole, confirmation, fluorescence, retest (AID 2467); format: functional, cell-based
[2] = target: T1, Short transient receptor potential channel 4 (Mus musculus, UniProt Q9QUQ5); experiment: mouse TRPC4 channel activators, dose response, cell-based, HEK293 TRPC4/mu-opioid, Fluo-4 calcium (AID 434937); format: functional
T1 sequence (Q9QUQ5 whole entry): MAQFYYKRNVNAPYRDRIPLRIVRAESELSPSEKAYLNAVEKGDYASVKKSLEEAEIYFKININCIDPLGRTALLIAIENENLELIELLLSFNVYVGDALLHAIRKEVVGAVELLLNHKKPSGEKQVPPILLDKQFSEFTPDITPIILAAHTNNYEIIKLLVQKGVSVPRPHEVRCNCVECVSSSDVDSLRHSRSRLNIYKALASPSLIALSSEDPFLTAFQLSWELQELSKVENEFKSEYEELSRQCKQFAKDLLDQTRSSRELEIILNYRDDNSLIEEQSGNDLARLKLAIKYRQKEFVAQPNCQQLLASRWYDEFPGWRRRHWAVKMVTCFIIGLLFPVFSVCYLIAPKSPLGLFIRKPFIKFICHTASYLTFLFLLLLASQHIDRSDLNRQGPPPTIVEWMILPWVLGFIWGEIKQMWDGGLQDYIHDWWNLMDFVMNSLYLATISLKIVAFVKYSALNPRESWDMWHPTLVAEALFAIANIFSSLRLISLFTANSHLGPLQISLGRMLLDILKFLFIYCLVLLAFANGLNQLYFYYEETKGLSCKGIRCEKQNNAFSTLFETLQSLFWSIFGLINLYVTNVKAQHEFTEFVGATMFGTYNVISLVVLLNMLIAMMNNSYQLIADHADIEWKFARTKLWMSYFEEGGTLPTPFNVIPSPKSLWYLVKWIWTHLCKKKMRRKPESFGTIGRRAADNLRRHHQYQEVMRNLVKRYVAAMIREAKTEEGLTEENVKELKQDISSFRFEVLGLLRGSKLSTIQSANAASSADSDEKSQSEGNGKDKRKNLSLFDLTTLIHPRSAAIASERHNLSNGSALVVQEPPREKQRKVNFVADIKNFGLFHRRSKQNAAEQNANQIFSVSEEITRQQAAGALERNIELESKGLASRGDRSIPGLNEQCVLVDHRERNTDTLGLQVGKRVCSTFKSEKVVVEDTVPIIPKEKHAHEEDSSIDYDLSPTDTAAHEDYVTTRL

INS1 = experiment: beta cell apoptosis inhibitors, cytokine rescue, dose response, luminescence, retest (AID 449756); format: functional, cell-based; conditions: Rattus norvegicus;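 note: cell death triggered by IL-1 beta plus TNF-alpha plus IFN-gamma mixture; protective hits raise ATP signal compared with cytokine alone wells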
Vero = experiment: host cell cytotoxicity of antiviral hits, dose response, cytotoxicity control for West Nile virus antiviral project, secondary assay (AID 1650); format: functional; conditions: Chlorocebus sabaeus
[3] = target: T2, Type-1 angiotensin II receptor (Homo sapiens, UniProt P30556); experiment: AT1 receptor antagonists, dose response, selectivity assay for APJ receptor antagonist project, cell-based, uHTS hits (AID 463214); format: functional;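 note: antagonist potency against angiotensin II stimulated AT1 response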
T2 sequence (P30556 whole entry): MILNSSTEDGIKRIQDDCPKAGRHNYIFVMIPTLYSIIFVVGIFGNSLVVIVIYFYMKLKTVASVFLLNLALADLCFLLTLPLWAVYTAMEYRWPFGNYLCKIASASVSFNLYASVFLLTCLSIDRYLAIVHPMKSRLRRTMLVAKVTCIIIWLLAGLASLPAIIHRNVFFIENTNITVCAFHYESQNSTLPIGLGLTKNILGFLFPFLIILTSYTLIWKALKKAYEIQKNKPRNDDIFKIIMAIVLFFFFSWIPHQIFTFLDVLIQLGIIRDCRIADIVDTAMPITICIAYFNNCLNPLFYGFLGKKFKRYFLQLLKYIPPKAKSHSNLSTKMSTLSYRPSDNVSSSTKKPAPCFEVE

[4] = NIH-3T3 fibroblast cytotoxicity, dose response, cytotoxicity control, cell-based, fluorescence, Alamar Blue, secondary assay (AID 2327); format: functional;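 note: NIH-3T3 mouse fibroblasts cultured with fluconazole at 8 µg/mL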
14-3-3 protein gamma = 14-3-3 protein gamma (Homo sapiens, UniProt P61981); experiment: modulators of 14-3-3 gamma client binding – dose response (AID 711); format: functional
Sequence of 14-3-3 protein gamma (P61981 whole entry): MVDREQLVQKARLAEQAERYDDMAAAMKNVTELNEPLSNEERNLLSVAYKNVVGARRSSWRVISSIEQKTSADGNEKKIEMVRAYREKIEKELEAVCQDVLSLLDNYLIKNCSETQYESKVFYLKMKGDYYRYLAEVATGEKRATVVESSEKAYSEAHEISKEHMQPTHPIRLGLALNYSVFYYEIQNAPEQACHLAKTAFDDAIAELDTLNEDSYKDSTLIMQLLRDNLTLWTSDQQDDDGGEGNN

Estrogen receptor beta [5] = target: T3, Estrogen receptor beta (Homo sapiens, UniProt Q92731);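 note: recombinant ER-beta bound to coactivator SRC1 peptide in presence of estradiol agonist; inhibitors block coactivator peptide binding and lower the FRET signal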
T3 sequence (Q92731 whole entry): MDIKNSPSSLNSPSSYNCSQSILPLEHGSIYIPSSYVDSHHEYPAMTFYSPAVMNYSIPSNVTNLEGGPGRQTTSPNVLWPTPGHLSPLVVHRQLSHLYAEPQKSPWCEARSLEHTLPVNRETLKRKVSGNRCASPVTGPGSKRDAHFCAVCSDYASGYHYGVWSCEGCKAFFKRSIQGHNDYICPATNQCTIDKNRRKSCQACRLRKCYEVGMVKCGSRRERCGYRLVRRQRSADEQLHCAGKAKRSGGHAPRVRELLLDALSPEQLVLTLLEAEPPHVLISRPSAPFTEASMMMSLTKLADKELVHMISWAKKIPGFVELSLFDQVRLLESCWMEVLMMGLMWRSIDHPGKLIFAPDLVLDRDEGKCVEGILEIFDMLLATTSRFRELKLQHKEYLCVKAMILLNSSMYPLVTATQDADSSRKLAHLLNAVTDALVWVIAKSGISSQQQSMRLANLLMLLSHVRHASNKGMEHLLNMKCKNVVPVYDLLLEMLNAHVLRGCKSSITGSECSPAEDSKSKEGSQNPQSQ

Estrogen receptor beta [6] = target: T3, Estrogen receptor beta; experiment: ERβ–SRC-3 coactivator interaction inhibitors, confirmation, orthogonal assay, biochemical, ELISA, streptavidin-HRP readout (AID 1060)
Estrogen receptor = target: T4, Estrogen receptor (Homo sapiens, UniProt P03372);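 note: potency for inhibiting coactivator peptide recruitment to the receptor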
T4 sequence (P03372 whole entry): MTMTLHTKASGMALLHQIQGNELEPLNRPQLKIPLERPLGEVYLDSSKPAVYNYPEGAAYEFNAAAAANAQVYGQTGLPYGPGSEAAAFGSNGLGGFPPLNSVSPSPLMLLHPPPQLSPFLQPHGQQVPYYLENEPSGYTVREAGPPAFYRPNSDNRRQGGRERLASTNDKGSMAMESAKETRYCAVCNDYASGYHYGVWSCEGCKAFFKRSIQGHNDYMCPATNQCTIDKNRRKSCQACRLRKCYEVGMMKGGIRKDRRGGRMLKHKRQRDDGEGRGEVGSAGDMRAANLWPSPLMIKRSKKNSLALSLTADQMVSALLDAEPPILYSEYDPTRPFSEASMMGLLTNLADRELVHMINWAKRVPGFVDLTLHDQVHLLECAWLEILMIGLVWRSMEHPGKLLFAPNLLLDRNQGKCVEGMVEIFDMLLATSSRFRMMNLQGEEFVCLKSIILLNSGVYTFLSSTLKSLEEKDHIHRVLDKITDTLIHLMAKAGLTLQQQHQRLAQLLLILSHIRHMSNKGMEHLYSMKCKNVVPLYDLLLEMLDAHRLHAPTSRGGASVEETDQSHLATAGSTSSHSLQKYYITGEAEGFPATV

[7] = target: Mitogen-activated protein kinase 10 (Homo sapiens, UniProt P53779); experiment: Dose response biochemical screening assay for inhibitors of c-Jun N-Terminal Kinase 3 (JNK3). [Related pubchem assays: 746 ]
Sequence of Mitogen-activated protein kinase 10 (P53779 whole entry): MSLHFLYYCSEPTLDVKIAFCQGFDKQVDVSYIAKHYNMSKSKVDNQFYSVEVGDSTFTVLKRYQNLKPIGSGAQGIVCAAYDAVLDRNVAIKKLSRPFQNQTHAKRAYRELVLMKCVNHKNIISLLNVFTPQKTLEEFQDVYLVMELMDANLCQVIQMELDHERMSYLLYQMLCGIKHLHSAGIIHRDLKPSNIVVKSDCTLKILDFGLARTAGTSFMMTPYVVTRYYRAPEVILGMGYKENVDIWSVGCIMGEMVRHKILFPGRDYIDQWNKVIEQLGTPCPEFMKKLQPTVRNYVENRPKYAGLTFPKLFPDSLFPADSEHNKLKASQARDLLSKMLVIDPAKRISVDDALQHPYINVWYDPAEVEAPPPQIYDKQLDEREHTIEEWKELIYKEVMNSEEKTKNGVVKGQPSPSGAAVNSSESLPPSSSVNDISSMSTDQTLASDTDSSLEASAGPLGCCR

Sequence of Cytochrome P450 2D6 (P10635 whole entry): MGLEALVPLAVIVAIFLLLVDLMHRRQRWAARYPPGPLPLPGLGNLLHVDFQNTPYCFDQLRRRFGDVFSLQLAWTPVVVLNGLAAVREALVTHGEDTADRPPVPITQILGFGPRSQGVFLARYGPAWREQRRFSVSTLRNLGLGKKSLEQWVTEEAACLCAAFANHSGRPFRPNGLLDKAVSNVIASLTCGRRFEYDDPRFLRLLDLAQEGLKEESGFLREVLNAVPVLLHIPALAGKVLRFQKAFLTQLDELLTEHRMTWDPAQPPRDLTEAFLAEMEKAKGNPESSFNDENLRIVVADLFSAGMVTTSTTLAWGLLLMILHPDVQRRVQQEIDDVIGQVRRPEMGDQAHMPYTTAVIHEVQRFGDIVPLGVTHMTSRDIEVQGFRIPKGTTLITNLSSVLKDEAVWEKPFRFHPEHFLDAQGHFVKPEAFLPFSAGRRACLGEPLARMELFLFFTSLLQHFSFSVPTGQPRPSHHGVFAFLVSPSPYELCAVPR
Sequence of Beta-galactosidase (Q8VNN2 whole entry): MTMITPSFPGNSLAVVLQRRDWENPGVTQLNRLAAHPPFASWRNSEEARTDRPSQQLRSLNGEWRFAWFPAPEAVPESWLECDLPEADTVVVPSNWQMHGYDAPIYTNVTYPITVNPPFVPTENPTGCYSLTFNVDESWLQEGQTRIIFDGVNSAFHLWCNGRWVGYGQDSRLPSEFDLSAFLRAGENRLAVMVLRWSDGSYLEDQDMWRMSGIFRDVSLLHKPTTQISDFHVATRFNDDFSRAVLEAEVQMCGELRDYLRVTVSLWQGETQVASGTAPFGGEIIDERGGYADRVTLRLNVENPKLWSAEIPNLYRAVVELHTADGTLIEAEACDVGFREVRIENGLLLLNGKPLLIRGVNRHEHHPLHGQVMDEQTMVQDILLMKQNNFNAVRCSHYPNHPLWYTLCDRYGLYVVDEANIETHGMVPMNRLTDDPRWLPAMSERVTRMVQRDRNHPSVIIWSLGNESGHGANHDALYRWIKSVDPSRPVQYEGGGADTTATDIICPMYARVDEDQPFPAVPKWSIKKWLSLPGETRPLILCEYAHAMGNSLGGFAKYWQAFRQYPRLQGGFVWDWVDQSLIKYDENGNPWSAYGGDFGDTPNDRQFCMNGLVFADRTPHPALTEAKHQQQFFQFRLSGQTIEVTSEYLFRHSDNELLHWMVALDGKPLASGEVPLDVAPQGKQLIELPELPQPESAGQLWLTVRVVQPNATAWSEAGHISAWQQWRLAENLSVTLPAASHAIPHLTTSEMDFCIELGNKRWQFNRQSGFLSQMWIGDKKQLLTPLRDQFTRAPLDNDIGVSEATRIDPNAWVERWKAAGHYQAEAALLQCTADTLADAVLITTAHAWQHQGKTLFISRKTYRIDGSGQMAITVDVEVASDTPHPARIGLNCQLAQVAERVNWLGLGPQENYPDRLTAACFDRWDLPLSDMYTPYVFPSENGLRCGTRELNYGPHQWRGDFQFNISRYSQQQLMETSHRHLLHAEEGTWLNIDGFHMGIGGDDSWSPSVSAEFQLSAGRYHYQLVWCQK

Compound: COc1cc2c(cc1O)CCN[C@H]2C
- AC50 (Cytochrome P450 2D6): 20 µM (inconclusive)

Compound: CC(C)(C)C(=O)NC(=S)NNC(=O)c1ccc(-c2ccccc2)cc1
- EC50 (Beta-galactosidase): > 40 µM (inactive)
- EC50 [1]: 0.694 µM (active)
- EC50 [2]: 1.5 µM (active)
- AC50 (INS1): 2.14 µM (active)
- CC50 (Vero): 4.57 µM (active)
- IC50 [3]: 10.8 µM (active)
- EC50 [4]: 3.25 µM (active)

Compound: CCOc1ccc2[nH]c(=O)c(CN(CC3COCCO3)C(=O)C3CC3)cc2c1 (stereo not given)
- IC50 (14-3-3 protein gamma): > 50 µM (not active)

Compound: COc1ccc(OC2C=CC(c3ccccc3)OC2CO)cc1 (stereo not given)
- AC50 (Cytochrome P450 2D6): 6.31 µM (inconclusive)

Compound: CCN(CC)CCNCC1C(=O)O[C@@H]2C[C@@]3(C)CCC[C@H](C)C3=C[C@H]12 (stereo not given in full)
- CC50 (Vero): > 100 µM (active)

Compound: Cc1occc1-c1nnc(SCc2cc(=O)n3cc(Br)ccc3n2)n1C
- IC50 (Estrogen receptor beta [5]): > 50 µM (not active)
- IC50 (Estrogen receptor beta [6]): 0.468 µM (not active)
- IC50 (Estrogen receptor): > 50 µM (not active)

Compound: O=C1NC(=O)c2c(NC(=O)C3CCCO3)cccc21 (stereo not given)
- IC50 [7]: 56.2 µM (not active)

Source: ChEMBL document CHEMBL1201862, “PubChem BioAssay data set” (2004)
